In patent US20260365672A1, “K-RAS MUTANT PROTEIN INHIBITORS” (Jacobio Pharmaceuticals Co., Ltd., priority 2022, published 2026):

Molecular target: T1, GDP-KRAS G12V (Homo sapiens, UniProt P01116, G12V)
T1 construct: GDP-loaded HIS-KRAS(G12V, aa 1-169)
Assay: SOS1 catalyzed nucleotide exchange assay (TR-FRET)
Format: biochemical
Details: GDP-loaded HIS-KRAS(G12V, aa 1-169) 10-15 nM; 0.5 μM SOS1 ExD; 80 nM BODIPY FL GTP; 15 min pre-incubation, 4 hours at 25 °C
Experimental: GDP-loaded HIS-KRAS(G12V, aa 1-169) was pre-incubated with a compound in the presence of 10 nM GDP in a 384-well plate (Greiner) for 15 min, then purified SOS1 ExD (Flag tag, aa 564-1049), BODIPY™ FL GTP (Invitrogen) and MAb (monoclonal antibody) Anti 6HIS-Tb cryptate Gold (Cisbio) were added to the assay wells (Final concentration: 10-15 nM GDP-loaded HIS-KRAS(G12V), 5 nM GDP, 0.5 μM SOS1 ExD, 80 nM BODIPY™ FL GTP, 52.5 ng/mL MAb Anti 6HIS-Tb cryptate Gold) and incubated for 4 hours at 25 °C. Wells containing same percent of DMSO served as vehicle control, and wells without KRAS served as low control. TR-FRET signals were read on Tecan Spark multimode microplate reader. The parameters were F486: Excitation 340 nm, Emission 486 nm, Lag time 100 μs, Integration time 200 μs; F520: Excitation 340 nm, Emission 520 nm, Lag time 100 μs, Integration time 200 μs. TR-FRET ratios for each individual wells were calculated by equation: TR-FRET ratio=(Signal F520/Signal F486)*10000. The percent of activation of compounds treated wells were normalized between vehicle control and low control (% Activation=(TR-FRET ratioCompound treated−TR-FRET ratioLow control)/(TR-FRET ratioVehicle control−TR-FRET ratioLow control)*100%). Then the data were analyzed either by fitting a 4-parameter logistic model or by Excel to calculate IC50 values.

T1 sequence (P01116 1-169 isoform P01116-2 G12V): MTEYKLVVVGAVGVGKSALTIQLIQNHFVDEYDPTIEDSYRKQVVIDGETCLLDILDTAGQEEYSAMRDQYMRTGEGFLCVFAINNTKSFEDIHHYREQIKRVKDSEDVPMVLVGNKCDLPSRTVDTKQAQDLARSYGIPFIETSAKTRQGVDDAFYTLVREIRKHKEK

In order of falling IC50:
1. C#Cc1c(F)ccc2cc(O)cc(-c3nc4c5c(nc(OC[C@@]67CCCN6C[C@H](F)C7)nc5c3F)N(C)C3CC3N4C)c12 (mixture of isomers) [Compound 2]  26.4 nM
2. C#Cc1c(F)ccc2cc(N)cc(-c3nc4c5c(nc(OCC67CCCN6CC(F)C7)nc5c3F)N(C)C3COCC3N4C)c12 (centres unmarked) [Compound 5]  5.58 nM
3. C#Cc1c(F)ccc2cc(O)cc(-c3nc4c5c(nc(OCC67CCCN6CC(F)C7)nc5c3F)N(C)C3CCCC3N4C)c12 (centres unmarked) [Compound 1]  4.38 nM
4. C#Cc1c(F)ccc2cc(O)cc(-c3nc4c5c(nc(OC[C@@]67CCCN6C[C@H](F)C7)nc5c3F)N(C)[C@H]3COC[C@H]3N4)c12 [Compound 4]  1.35 nM
5. C#Cc1c(F)ccc2cc(O)cc(-c3nc4c5c(nc(OC[C@@]67CCCN6C[C@H](F)C7)nc5c3F)N(C)C3COCC3N4C)c12 (mixture of isomers) [Compound 3]  0.757 nM
